#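 Following 48 hours of exposure in 96-well plates, responses at five concentrations were used to interpolate endpoints linearly. GI50 is the concentration that inhibits growth by half.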 Activity calls are given as the source filed them. Rule as the data show it: active = GI50 up to about 1.1 µM and inactive = higher.
# Key:
# Experiment in all cases: NCI tumour cell line growth inhibition, 48 h
# [1] = system: A498
# [2] = system: NCI-H460
# [3] = system: U-251
# [4] = system: OVCAR-4
# [5] = system: SK-MEL-2
# [6] = system: DU-145
# [7] = system: HCC 2998
# [8] = system: HCT-116
# [9] = system: COLO 205
# [10] = system: A549
# [11] = system: MDA-MB-435
# [12] = system: LOX IMVI
# [13] = system: UO-31
# [14] = system: HOP-92
# [15] = system: OVCAR-8
# [16] = system: OVCAR-3
# [17] = system: PC-3
# [18] = system: NCI-H23
# [19] = system: ACHN
# [20] = system: KM12
# [21] = system: TK-10
# [22] = system: HOP-62
# [23] = system: HT-29
# [24] = system: RXF 393
# [25] = system: SW-620
# [26] = system: CAKI-1
# [27] = system: K562
# [28] = system: UACC-257
# [29] = system: MOLT-4
# [30] = system: HCT-15
# [31] = system: OVCAR-5
# [32] = system: IGROV-1
# [33] = system: SNB-19
# [34] = system: SK-MEL-5
# [35] = system: SR
# [36] = system: NCI-H226
# [37] = system: HL-60
# [38] = system: SN12C
# [39] = system: EKVX
# [40] = system: BT-549
# [41] = system: RPMI-8226
# [42] = system: MCF7
# [43] = system: 786-0
# [44] = system: M14
# [45] = system: CCRF-CEM
# [46] = system: SK-OV-3
# [47] = system: NCI/ADR-RES
# [48] = system: SNB-75
# [49] = system: T47D
# [50] = system: SK-MEL-28
# [51] = system: UACC-62
# [52] = system: MDA-N
# [53] = system: Malme-3M
# [54] = system: SF-539
# [55] = system: SF-295
# [56] = system: MDA-MB-231
# [57] = system: Hs-578T
# [58] = system: NCI-H522
smiles,measurement,setting,value
CCOC(=O)C(O)(CC1=NC(C(=O)OC)(C(=O)OC)C(c2cccc(C=O)c2)O1)C(=O)OCC (stereo not drawn),GI50,[1],> 100 µM (inactive)
same,GI50,[2],> 100 µM (inactive)
same,GI50,[3],> 100 µM (inactive)
same,GI50,[4],> 100 µM (inactive)
same,GI50,[5],> 100 µM (inactive)
same,GI50,[6],> 100 µM (inactive)
same,GI50,[7],> 100 µM (inactive)
same,GI50,[8],> 100 µM (inactive)
same,GI50,[9],> 100 µM (inactive)
same,GI50,[10],> 100 µM (inactive)
same,GI50,[11],> 100 µM (inactive)
same,GI50,[12],> 100 µM (inactive)
same,GI50,[13],> 100 µM (inactive)
same,GI50,[14],> 100 µM (inactive)
same,GI50,[15],> 100 µM (inactive)
same,GI50,[16],> 100 µM (inactive)
same,GI50,[17],> 100 µM (inactive)
same,GI50,[18],> 100 µM (inactive)
same,GI50,[19],> 100 µM (inactive)
same,GI50,[20],> 100 µM (inactive)
same,GI50,[21],> 100 µM (inactive)
same,GI50,[22],> 100 µM (inactive)
same,GI50,[23],> 100 µM (inactive)
same,GI50,[24],> 100 µM (inactive)
same,GI50,[25],> 100 µM (inactive)
same,GI50,[26],> 100 µM (inactive)
same,GI50,[27],> 100 µM (inactive)
same,GI50,[28],> 100 µM (inactive)
same,GI50,[29],> 100 µM (inactive)
same,GI50,[30],> 100 µM
same,GI50,[31],> 100 µM (inactive)
same,GI50,[32],> 100 µM (inactive)
same,GI50,[33],> 100 µM (inactive)
same,GI50,[34],> 100 µM (inactive)
same,GI50,[35],> 100 µM (inactive)
same,GI50,[36],> 100 µM (inactive)
same,GI50,[37],25.3 µM (inactive)
same,GI50,[38],> 100 µM (inactive)
same,GI50,[39],> 100 µM (inactive)
same,GI50,[40],> 100 µM (inactive)
same,GI50,[41],> 100 µM (inactive)
same,GI50,[42],> 100 µM (inactive)
same,GI50,[43],> 100 µM (inactive)
same,GI50,[44],> 100 µM (inactive)
same,GI50,[45],> 100 µM (inactive)
same,GI50,[46],> 100 µM (inactive)
same,GI50,[47],> 100 µM (inactive)
same,GI50,[48],> 100 µM (inactive)
same,GI50,[49],> 100 µM (inactive)
same,GI50,[50],> 100 µM (inactive)
same,GI50,[51],> 100 µM (inactive)
same,GI50,[52],> 100 µM (inactive)
CC(C)[N+]([O-])(CCCNc1c2ccccc2nc2cccc([N+](=O)[O-])c12)C(C)C,GI50,[53],< 0.041 µM (active)
same,GI50,[1],< 0.0452 µM (active)
same,GI50,[2],0.06 µM (active)
same,GI50,[3],< 0.0453 µM (active)
same,GI50,[4],0.153 µM (active)
same,GI50,[5],0.234 µM (active)
same,GI50,[6],< 0.026 µM (active)
same,GI50,[7],< 0.01 µM (active)
same,GI50,[8],< 0.0204 µM (active)
same,GI50,[54],0.047 µM (active)
same,GI50,[9],< 0.019 µM (active)
same,GI50,[10],< 0.0282 µM (active)
same,GI50,[11],< 0.0325 µM (active)
same,GI50,[12],0.0619 µM (active)
same,GI50,[14],< 0.0355 µM (active)
same,GI50,[55],< 0.0412 µM (active)
same,GI50,[15],< 0.0458 µM (active)
same,GI50,[17],< 0.0473 µM (active)
same,GI50,[18],< 0.0206 µM (active)
same,GI50,[19],< 0.0441 µM (active)
same,GI50,[20],0.065 µM (active)
same,GI50,[56],< 0.01 µM (active)
same,GI50,[22],0.0525 µM (active)
same,GI50,[23],< 0.0202 µM (active)
same,GI50,[24],0.172 µM (active)
same,GI50,[25],< 0.0258 µM (active)
same,GI50,[26],0.492 µM (active)
same,GI50,[27],< 0.0355 µM (active)
same,GI50,[28],0.064 µM (active)
same,GI50,[29],< 0.0181 µM (active)
same,GI50,[31],< 0.0395 µM (active)
same,GI50,[33],0.0726 µM (active)
same,GI50,[34],< 0.0167 µM (active)
same,GI50,[35],0.0142 µM (active)
same,GI50,[36],< 0.0456 µM (active)
same,GI50,[37],< 0.0428 µM (active)
same,GI50,[38],0.0551 µM (active)
same,GI50,[57],< 0.0481 µM (active)
same,GI50,[39],< 0.0367 µM (active)
same,GI50,[40],< 0.0395 µM (active)
same,GI50,[58],0.0294 µM (active)
same,GI50,[41],< 0.0179 µM (active)
same,GI50,[42],< 0.0272 µM (active)
same,GI50,[43],0.0467 µM (active)
same,GI50,[44],0.0347 µM (active)
same,GI50,[45],< 0.0412 µM (active)
same,GI50,[46],0.262 µM (active)
same,GI50,[47],0.581 µM (active)
same,GI50,[50],< 0.01 µM (active)
same,GI50,[51],0.148 µM (active)
same,GI50,[52],< 0.0342 µM (active)

# — ChEMBL document CHEMBL1201862, “PubChem BioAssay data set” (2004)
